The test system of one series is Bovine brain tubulin. Put plainly: In vitro microtubule. It is filed as biochemical. As to conditions: 10 μM compound, absorbance 340 nm, 15 min.
In series [1] the test system is PPC-1. As to conditions: read-out: IC50 ± SEM; PPC-1 prostate, SRB; previously reported ref 11; cited from earlier work.
A further series relates to A375 melanoma xenograft. Conditions: 34 days; for % T/C: A375 melanoma xenograft; for Tumor volume at end of treatment: A375 xenograft, control 2183 ± 279.
Series [2] concerns A375. Conditions: read-out: IC50 ± SEM; A375 melanoma, SRB; previously reported ref 11; cited from earlier work.
For a further series, the system named is tubulin. Description: MS competitive binding assay on tubulin binding sites.
Series [3] relates to PC-3 prostate tumor xenograft. As to conditions: for %T/C values (range): both PC-3 and A375 xenograft models, doses 5 to 20 mg/kg.
For series [4] the following is noted: cited from earlier work.
Series [5] relates to ICR mice. Put plainly: Rotarod test. Background: The rotarod test checks motor coordination on a turning rod.
Series [6] deals with B16-F1. As to conditions: read-out: IC50 ± SEM; B16-F1 melanoma, SRB; previously reported ref 11; cited from earlier work.
The next series concerns OVCAR-8. Description: SRB cytotoxicity assay, OVCAR-8. Type of series: cell-based, human. Background: The SRB assay estimates cell density from bound dye.
The subject of series [7] is Du-145. Conditions: read-out: IC50 ± SEM; Du-145 prostate, SRB; previously reported ref 11; cited from earlier work.
Series [8] deals with LNCaP. Conditions: read-out: IC50 ± SEM; LNCaP prostate, SRB; previously reported ref 11; cited from earlier work.
Series [9] relates to ICR mice. Conditions: mouse, 15 mg/kg.
Series [10] relates to PC-3. Conditions: read-out: IC50 ± SEM; PC-3 prostate, SRB; previously reported ref 11; cited from earlier work.
Series [11] relates to ICR mice. Put plainly: Acute toxicity study in ICR mice. Conditions: 4 consecutive days of intraperitoneal dosing. It is filed as in vivo.
Another series deals with PC-3 cells. Type of series: cell-based, human.
For series [12] the following is noted: mice, 15 mg/kg i.v.; ref C. M. Li et al, in press; cited from earlier work.
A short description of series [13]: Pharmacokinetic study in ICR mice, i.v. Conditions: 15 mg/kg i.v.
A short description of series [14]: Pharmacokinetic study in Sprague-Dawley rats, i.v. As to conditions: 2.5 mg/kg i.v.
For series [15] the following is noted: rat, in vivo, iv, 2.5 mg/kg.
In series [16] the test system is PC-3. Put plainly: SRB cytotoxicity assay, PC-3. Type of series: cell-based, human.
In series [17] the test system is Du-145. Description: SRB cytotoxicity assay, Du-145. Type of series: cell-based, human.
The test system of series [18] is PPC-1. Put plainly: SRB cytotoxicity assay, PPC-1. Type of series: cell-based, human.
In another series the test system is PC-3 and A375 cells. Description: Apoptosis detection by ELISA. It is filed as cell-based, human. Conditions: 24 h treatment. In general terms: An ELISA detects its analyte on a solid surface through an enzyme-linked reagent.
Series [19] has as its system prostate cancer and melanoma cell lines. Description: SRB antiproliferative assay, ranges over the cell line panel. Type of series: cell-based, human. Conditions: read-out: IC50 (range over cell lines), Table 1 cell lines.
In series [20] the test system is B16-F1. Put plainly: SRB cytotoxicity assay, B16-F1. Type of series: cell-based.
In series [21] the test system is A375. Put plainly: SRB cytotoxicity assay, A375. It is filed as cell-based, human.
Series [22] deals with LNCaP. Description: SRB cytotoxicity assay, LNCaP. Conditions: read-out: IC50 ± SEM. Type of series: cell-based, human.
The subject of the next series is NCI/ADR-RES. Description: SRB cytotoxicity assay, NCI/ADR-RES. Type of series: cell-based, human.
[23] abbreviates: PC-3 xenograft, 5 mg/kg, start 150 mm^3, control 680 ± 198.
The mark [24] stands for this setting: PC-3 xenograft, 15 mg/kg, start 150 mm^3, control 680 ± 198.
[25] abbreviates: read-out: IC50 ± SEM, OVCAR-8 ovarian (parent), SRB, n = 3.
Setting [26] is: Homo sapiens, PPC-1, read-out: IC50 ± SEM.

“Also recorded” adds a separate entry of the source. Read-outs that look alike come from different tables or passages of the source. Marks after values point to notes of the source that are not given here.

Take `COc1cc(C(=O)c2csc(-c3ccccc3)n2)cc(OC)c1OC` [SMART-H]: the “Inhibition of tubulin polymerization” value with Bovine brain tubulin was 90%. Moreover, the IC50 with PPC-1 [1] is 43 ± 5 nM; with A375 [2] it was 28 ± 5 nM; with B16-F1 [6] it was 55 ± 5 nM; in the series with OVCAR-8 (setting [25]), 35 ± 2 nM; in the series with Du-145 [7], 71 ± 4 nM; in the series with LNCaP [8] it was 28 ± 4 nM. For the same molecule, the IC50 in the series on PC-3 [10] was 21 ± 1 nM; in the series on PC-3 cells (PC-3 cells from ATCC (in vitro control)) it was 29.1 ± 1.1 nM; with PC-3 cells (dissociated cells from SMART-H (15 mg/kg, 21 days) treated PC-3 tumors), 30.4 ± 0.5 nM; in the series on PC-3 cells (dissociated cells from vehicle treated PC-3 tumors, 21 days), 29.1 ± 0.8 nM. For the same molecule, in the series on A375 melanoma xenograft (20 mg/kg i.p. daily, 20 mg/kg), the “% T/C” value is reported as 28%. Further, in the series on A375 melanoma xenograft (20 mg/kg), the “Tumor volume at end of treatment” value was 775 ± 107 mm^3. For the same molecule, the “Competition with colchicine binding to tubulin” value in the series with tubulin is “specifically competed with colchicine binding to tubulin”. The “Competition with paclitaxel binding to tubulin” value with tubulin is on record as “did not compete”. In addition, in the series on tubulin, the “Competition with vinblastine binding to tubulin” value was “did not compete”. Also, the figures for the “Tumor volume by day 21” value in [3] (setting [23]) and in [3] (setting [24]) were 370 ± 103 mm^3 and 176 ± 112 mm^3, respectively. Further, the “%T/C values (range)” value in series [3] is 4–30%. For the same molecule, the AUC in [4] (rat, in vivo, iv, 2.5 mg/kg) is on record as 5.8 ^a hr * μg/mL. The CL in series [4] (rat, in vivo, iv, 2.5 mg/kg) was 6 ^a mL/min/kg. Further, the Vss in [4] (rat, in vivo, iv, 2.5 mg/kg) is recorded as 7.6 ^a L/kg. Further, the t1/2 in [4] (rats, 2.5 mg/kg i.v., ref C. M. Li et al, in press) is 1431 ^a min; in [12], 140 ^a min. Moreover, the “Rotarod performance (time on rotating rod) vs vehicle” value with ICR mice [5] (5 or 15 mg/kg i.p. daily, to day 31) is recorded as “no significant difference; also recorded: did not show significant impairment in motor coordination”. Also, the Neurotoxicity in vivo entry in the series with ICR mice [9] is “failed to produce any apparent neurotoxicity”. The “Doses that did not cause greater than 10% loss of body weight” value in the series on ICR mice [11] was “up to 30 mg/kg”.

With `COc1cc(C(=O)c2csc(-c3ccc(F)cc3)n2)cc(OC)c1OC` [SMART-F], the “Inhibition of tubulin polymerization” value with Bovine brain tubulin is recorded as 90%. Moreover, the t1/2 in series [13] turned out to be 2.35 h; in series [14], 40.17 h. Moreover, the “% T/C” value in the series with A375 melanoma xenograft (15 mg/kg i.p. daily, 15 mg/kg) came out at 29%. Also, the “Tumor volume at end of treatment” value in the series with A375 melanoma xenograft (15 mg/kg) is recorded as 722 ± 135 mm^3. Further, the IC50 with A375 [2] was 33 ± 14 nM; in the series with B16-F1 [6], 43 ± 21 nM; with OVCAR-8 (setting [25]), 34 ± 3 nM; in the series with LNCaP [8] it was 6 ± 1 nM; in the series on PC-3 [10] it was 13 ± 1 nM. For the same molecule, the “Tumor volume by day 21” value in series [3] (setting [23]) is 269 ± 177 mm^3; in series [3] (setting [24]), 292 ± 103 mm^3. Besides, the “%T/C values (range)” value in series [3] is 4–30%. In [15], the AUC worked out at 1600 ng·h/mL. The molecule also displayed a CL in series [15] of 11 mL/min/kg. Also, in series [15], the Vss is reported as 34 L/kg. In addition, in the series with ICR mice [11], the “Doses that did not cause greater than 10% loss of body weight” value is given as at most 15 mg/kg.

`COc1cc(C(=O)c2csc(-c3ccc(O)cc3)n2)cc(OC)c1OC` [SMART-OH]: in the series on Bovine brain tubulin, the “Inhibition of tubulin polymerization” value is 55%. Moreover, the IC50 in the series with PC-3 [16] (read-out: IC50 ± SEM, PC-3 prostate, SRB, n = 3) was 87 ± 5 nM; with Du-145 [17] (read-out: IC50 ± SEM, Du-145 prostate, SRB, n = 3) it was 116 ± 14 nM; with PPC-1 [18] (read-out: IC50 ± SEM, PPC-1 prostate, SRB, n = 3), 76 ± 2 nM; in series [19] it was 76 to 116 nM; in the series on OVCAR-8 (setting [25]) it was 110 ± 8 nM; in the series on B16-F1 [20] (read-out: IC50 ± SEM, B16-F1 melanoma, SRB, n = 3), 113 ± 6 nM. Further, the IC50 stood at 93 ± 11 nM in the series on A375 [21] (read-out: IC50 ± SEM, A375 melanoma, SRB, n = 3); 103 ± 9 nM with LNCaP [22] (LNCaP prostate, SRB, n = 3); 45 ± 5 nM with NCI/ADR-RES (read-out: IC50 ± SEM, NCI/ADR-RES ovarian (P-gp over-expressing), SRB, n = 3). Besides, in series [3] (PC-3 xenograft model, SMART-OH at higher dosage), the “Potency relative to SMART-H (fold less)” value was 10 fold. Moreover, in series [3] (PC-3 xenograft, 50 mg/kg, start 150 mm^3, control 680 ± 198), the “Tumor volume at day 21” value came to 331 ± 130 mm^3. The “Concentration inducing apoptosis (cytoplasmic DNA-histone complexes)” value with PC-3 and A375 cells is at least 200 nM. Further, the “Resistance Factor” value in the series on NCI/ADR-RES (NCI/ADR-RES relative to OVCAR-8) stood at 0.4.

Regarding `CC[C@]1(O)C[C@@H]2CN(CCc3c([nH]c4ccccc34)[C@@](C(=O)OC)(c3cc4c(cc3OC)N(C)[C@H]3[C@@](O)(C(=O)OC)[C@H](OC(C)=O)[C@]5(CC)C=CCN6CC[C@]43[C@@H]65)C2)C1` [Vinblastine], the IC50 in the series with PC-3 [16] (Homo sapiens, PC-3, read-out: IC50 ± SEM) was 2.1 ± 0.2 nM; in the series with Du-145 [17] (Homo sapiens, DU-145, read-out: IC50 ± SEM), 1.8 ± 1.1 nM; with PPC-1 [18] (setting [26]), 1.1 ± 0.4 nM; in the series with B16-F1 [20] (Mus musculus, B16-F1, read-out: IC50 ± SEM), 4.7 ± 0.7 nM; in the series on A375 [21] (Homo sapiens, A-375, read-out: IC50 ± SEM), 1.1 ± 0.2 nM; in the series with LNCaP [22] (Homo sapiens, LNCaP) it was 1.1 ± 0.1 nM. The “Rotarod performance (time on rotating rod) vs vehicle” value with ICR mice [5] (0.5 mg/kg i.p. daily, to day 31, 0.5 mg/kg) was “gradually reduced the time (in seconds) that the mice could stay on the rotating rod, and attained significance by days 27 and 31; also recorded: lesser ability to stay on the rotating rod”. In addition, the “Rotarod post-observation after treatment stopped” value in the series with ICR mice [5] (4 weeks after drug treatment was stopped) is “failed to return to baseline”.

Regarding `CC(=O)O[C@H]1C(=O)[C@@]2(C)[C@H]([C@H](OC(=O)c3ccccc3)[C@]3(O)C[C@H](OC(=O)[C@H](O)[C@@H](NC(=O)c4ccccc4)c4ccccc4)C(C)=C1C3(C)C)[C@]1(OC(C)=O)CO[C@@H]1C[C@@H]2O` [Paclitaxel], the IC50 was determined as 2.3 ± 0.8 nM with PPC-1 [18] (setting [26]) and 4.7 ± 0.1 nM in the series on OVCAR-8 (Homo sapiens, OVCAR-8, read-out: IC50 ± SEM).

The AUC is concentration integrated over time. For orientation: Vss means the apparent volume that relates the amount in the body to the concentration in plasma or blood.

(Values after PMC3039446 (Cancer research, 2010).)
